In patent publication US20260325658A1 (priority 2022, published 2026):
“Also recorded” adds a separate entry of the source.

Tests used:
[1] = system: adult patients; details: human, in vivo; cited from earlier work
[2] = cited from earlier work
[3] = system: opioid addiction syndrome; details: in vivo; cited from earlier work
[4] = system: dopamine receptors; details: cited from earlier work
[5] = in vivo; cited from earlier work
[6] = system: Mecp2-null mice; details: mouse, in vivo; cited from earlier work
[7] = system: patients; details: human, in vivo; cited from earlier work
[8] = biological target: Sigma 2 (Homo sapiens, UniProt Q5BJF2); details: cited from earlier work
Sigma 2, sequence (Q5BJF2 whole entry): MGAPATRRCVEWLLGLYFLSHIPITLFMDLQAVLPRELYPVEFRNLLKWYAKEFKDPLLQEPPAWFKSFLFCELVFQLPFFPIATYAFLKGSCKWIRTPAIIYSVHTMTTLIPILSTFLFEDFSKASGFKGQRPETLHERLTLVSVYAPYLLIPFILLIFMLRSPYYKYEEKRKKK

[9] = biological target: D2L human dopamine GPCR (Homo sapiens, UniProt P14416); assay type: cell-based
D2L human dopamine GPCR, sequence (P14416 whole entry): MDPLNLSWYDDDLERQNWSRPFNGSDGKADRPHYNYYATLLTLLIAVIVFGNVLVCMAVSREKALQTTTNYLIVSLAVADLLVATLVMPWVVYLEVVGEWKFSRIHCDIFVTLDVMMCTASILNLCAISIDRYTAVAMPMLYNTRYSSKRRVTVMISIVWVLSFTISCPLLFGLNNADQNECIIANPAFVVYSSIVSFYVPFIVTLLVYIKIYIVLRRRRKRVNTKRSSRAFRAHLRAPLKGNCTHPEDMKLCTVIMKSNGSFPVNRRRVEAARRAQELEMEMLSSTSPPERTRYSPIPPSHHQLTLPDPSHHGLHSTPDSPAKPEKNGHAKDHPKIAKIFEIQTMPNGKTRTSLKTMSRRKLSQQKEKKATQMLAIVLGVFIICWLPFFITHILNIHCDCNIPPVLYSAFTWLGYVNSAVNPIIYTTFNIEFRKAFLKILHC

[10] = biological target: Opiate μ (Homo sapiens, UniProt P35372); assay type: binding
Opiate μ, sequence (P35372 whole entry): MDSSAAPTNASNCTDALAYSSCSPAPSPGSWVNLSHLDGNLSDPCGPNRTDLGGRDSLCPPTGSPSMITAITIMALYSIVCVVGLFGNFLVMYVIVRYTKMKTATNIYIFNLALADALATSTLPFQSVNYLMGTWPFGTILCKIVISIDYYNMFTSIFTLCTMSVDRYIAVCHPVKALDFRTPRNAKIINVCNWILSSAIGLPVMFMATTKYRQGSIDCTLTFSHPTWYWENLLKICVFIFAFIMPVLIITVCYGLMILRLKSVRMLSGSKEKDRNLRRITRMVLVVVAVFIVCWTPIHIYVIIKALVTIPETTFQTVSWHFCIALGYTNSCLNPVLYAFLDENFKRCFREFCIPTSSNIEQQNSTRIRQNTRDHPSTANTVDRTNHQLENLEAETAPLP

[11] = biological target: human delta (DOP) receptor (Homo sapiens, UniProt P41143); assay type: cell-based
human delta (DOP) receptor, sequence (P41143 whole entry): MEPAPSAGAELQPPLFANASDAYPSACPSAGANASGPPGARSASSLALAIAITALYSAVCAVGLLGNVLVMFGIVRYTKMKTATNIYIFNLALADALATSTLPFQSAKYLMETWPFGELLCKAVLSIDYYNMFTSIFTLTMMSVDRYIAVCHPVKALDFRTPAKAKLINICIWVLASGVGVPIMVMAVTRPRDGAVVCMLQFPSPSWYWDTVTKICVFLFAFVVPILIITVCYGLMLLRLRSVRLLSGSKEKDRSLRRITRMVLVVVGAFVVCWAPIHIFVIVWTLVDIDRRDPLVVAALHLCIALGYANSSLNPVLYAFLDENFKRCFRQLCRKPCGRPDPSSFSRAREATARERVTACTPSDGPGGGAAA

c1ccc(C2(N3CCCCC3)CCCCC2)cc1 [PCP, 1-(1-phencyclohexyl) piperidine]
adult patients presenting with the classic toxidrome of PCP intoxication [1]: Over 50%

NCCc1c[nH]c2ccccc12 [Tryptamine]
Water Solubility of Free drug [2]: 1340 µg/mL

CC[C@H]1C[C@H]2C[C@H]3c4[nH]c5ccc(OC)cc5c4CCN(C2)[C@@H]13 [Ibogaine]
drug craving and depressive symptoms [3]: decreases drug craving and improves depressive symptoms

CNC1(c2ccccc2Cl)CCCCC1=O (stereo not drawn) [Ketamine, 2-(2-chlorophenyl)-2-(methylamino)-cyclohexanone]
affinity for / effect on dopamine receptors [4]: not shown any affinity for dopamine 2 receptors; also recorded: do not appear to have a direct effect on dopamine receptors | half-life [5]: approximately 45 minutes | efficacy by start of treatment [6]: Treatment from day 30 was not effective; also recorded: treatment from day 15 showed some efficacy | improved survival [6]: 50% | survival after treatment [6]: 50% | patients who develop an emergence phenomenon [7]: More than half the patients | concentration at which sigma2 receptors are bound [8]: mM concentrations

NC1(c2ccccc2Cl)CCCCC1=O (racemic) [NorKetamine, (R,S)-Norketamine]
affinity for / effect on dopamine receptors [4]: do not appear to have a direct effect on dopamine receptors | DRD2L Agonist [9]: Not active | ability to bind dopamine 2 receptors [9]: does not appear to bind Dopamine 2 receptors | Water Solubility of Free drug [2]: 178 µg/mL | Opiate μ [10]: Not active | binding to Opioid u receptors [10]: does not bind Opioid u receptors | Opiate delta1R (antagonist) [11]: Not active

NCCc1c[nH]c2ccc(O)cc12 [5HT, 5-hydroxy tryptamine]
Water Solubility of Free drug [2]: 2500 µg/mL
